In patent US6919092B2, “Method for the management of incontinence” (ALZA Corporation, priority 1995, dated 2005):

Assay: Multiple dose crossover clinical pharmacokinetic study, IR vs CR oxybutynin
Conditions: plasma

## CCNCC#CCOC(=O)C(O)(c1ccccc1)C1CCCCC1 (stereo not shown) [DESOXY]
  t1/2 life of DESOXY compared to OXY: shorter
